Results taken from PubChem BioAssay AID2055 (NMMLSC, 2009).

These compounds were tested against Ras-related C3 botulinum toxin substrate 1 (Homo sapiens) (UniProt P63000) (assay: Rac1 wildtype GTP binding inhibitors, SAR follow-up, biochemical, pyrazoline analogs, multiplex, flow cytometry, Ki (AID 2055)). Details: Rac1-GST beads, Bodipy-FL-GTP binding, Ki calculated from EC50.

| Compound | Ki [nM] |
| --- | --- |
| CC(=O)Oc1ccc(C2=NN(c3ccccc3)C(c3ccccc3)C2)cc1 (stereo unspecified) | 530 |
| CN(C)c1ccc(C2CC(c3ccccc3)=NN2c2ccc([N+](=O)[O-])cc2)cc1 (stereo unspecified) | 1900 |
| COc1ccc(C2CC(c3ccccc3)=NN2c2ccc(S(N)(=O)=O)cc2)cc1OC (stereo unspecified) | 1240 |
| Brc1ccc(N2N=C(c3ccccc3)CC2c2ccccc2)cc1 (stereo unspecified) | 890 |
| O=C(O)c1ccc(N2N=C(c3ccccc3)CC2c2ccccc2)cc1 (stereo unspecified) | 5110 |
| COc1ccc(C2CC(c3ccc(F)cc3)=NN2c2cc(Cl)ccc2Cl)cc1 (stereo unspecified) | 10 |
